Laboratory results taken from patent US11419916B2, “Methods and compositions for inducing differentiation of human brown adipocyte progenitors” (Energesis Pharmaceuticals, Inc., priority 2014, dated 2022).
Where a name gives a salt, the structure may show the parent alone.

B1: BMP-7: recombinant human bone morphogenetic protein 7, UniProt P18075 (protein, UniProt P18075 293-431, looked up)
Bone morphogenetic protein 7: STGSKQRSQNRSKTPKNQEALRMANVAENSSSDQRQACKKHELYVSFRDLGWQDWIIAPEGYAAYYCEGECAFPLNSYMNATNHAIVQTLVHFINPETVPKPCCAPTQLNAISVLYFDDSSNVILKKYRNMVVRACGCH

Experiments:
[1] = tested on: CD31-cells (brown adipocyte progenitors); assay: Quantification of UCP1 protein by immunohistochemistry (IHC); type: cell-based, human; settings: total intensity of UCP1 signal normalized to cell number
Description: Differentiation of brown adipocyte progenitors into brown adipocytes can be detected through quantification of UCP1 protein by immunohistochemistry (IHC).
Culturing and differentiation of CD31-cells into brown adipocytes were performed using adipogenic differentiation medium lacking (Minimal Differentiation Medium, MDM) or containing 1 μM rosiglitazone (Reference Differentiation Medium, RDM). After 15 days of differentiation cells were fixed with 4% Paraformaldehyde PBS pH 7.4, and incubated with a UCP1 antibody (Abcam ab23841) and Alexafluor 488 goat anti-rabbit antibody to quantify relative UCP1 levels (green) according to standard protocols. Prior to fixation of cells, nuclei were labeled with 5 μM DAPI (blue) for 10 minutes. Each treatment condition was evaluated in triplicate in a 96-well plate corresponding to approximately 360-480 cells for each data point in total. The InCell 1000 Developer Toolbox software was used to develop an automated cell detection script to measure UCP1 signal intensity, using the nuclei and cytoplasm detection algorithms. As a readout, total intensity of UCP1 signal within the cell was used, normalized to cell number.

CD31-cells = assay: Light microscopic photos of cell morphology, brown adipocyte differentiation; type: cell-based, human; settings: FIGS. 23A-23H
Description: (§1) Cells were seeded at 10,000 per cm^2 in 0.2% gelatin coated plates (48-well tissue culture, Chemglass #CLS-3500-048), cultured until confluency (2-4 days) at 37° C. in Endothelial cell growth medium-2 (EGM2) (BulletKit growth medium, Lonza #CC-3162) and until differentiation (10-16 more days). After 2 or 3 days in EGM2 medium the cells were induced to differentiate by replacing the medium with an adipogenic medium, which is a modification of the adipogenic medium described by Rodriguez et al. and may or may not contain a differentiation inducing agent (e.g., PPARγ agonist). The MDM described above contains: DMEM/Ham's F-12 50/50 Mix (3.151 g/l, 17.5 mM D-glucose, 3.651 g/l L-glutamine) (Cellgro #10-090-CV), 5 μg/ml (0.86 μM) insulin, 1 μM dexamethasone, 100 μM 3-isobutyl-1-methylxanthine, 0.2 nM 3,3′,5-triiodo-L-thyronine, 10 μg/ml (127 nM) transferrin, and 1% penicillin-streptomycin. If rosiglitazone is used as a differentiation-inducing agent, it can be supplied at 1 μM or any other concentration sufficient to induce differentiation of BAT progenitor cells into adipocytes.
Pictures of cells were taken using a hand-held digital camera (Nikon Coolpix 950) and inverted microscope (Nikon TMS) used for cell culture observations; images were optimized using Adobe Photoshop Elements 8 functions for Auto Contrast and Auto Levels.

[2] = tested on: CD31-cells (BAT progenitor cells isolated from human skeletal muscle); assay: Quantification of UCP1 and PPARγ2 mRNA (normalized to cyclophilin A) by multiplexed TaqMan real-time PCR to quantify differentiation into brown adipocytes; type: cell-based
Text: A robust method, previously disclosed in WO2013071063 and incorporated herein by reference, was used for detection of CD31-cell differentiation into brown adipocytes by simultaneously quantifying mRNA species corresponding to the brown adipocyte marker UCP1, the adipocyte marker PPARγ2, and the “housekeeping” gene cyclophilin A which was used as the internal control.
This method permits analysis of a large number of samples to identify agents that enhance the differentiation of CD31-cells into brown adipocytes. When differentiated into brown adipocytes CD31-cells express much higher levels of UCP1 and PPARγ2 mRNA for a given level of cyclophilin A. UCP1 and PPARγ2 mRNA levels normalized to cyclophilin A mRNA levels give an indication of the level of differentiation of the CD31-cells into brown adipocytes, independent of the total number of cells in the sample.
Quantification of UCP1, PPARγ2 and cyclophilin A mRNA by multiplexed TaqMan real-time PCR was thus used to quantify differentiation of the CD31-cells into brown adipocytes.
as §1, with “The MDM described above contains: DMEM/Ham's F-12 50/50 Mix (3.151 g/l, 17.5 mM D-glucose, 3.651 g/l L-glutamine) (Cellgro #10-090-CV), 5 μg/ml (0.86 μM) insulin, 1 μM dexamethasone, 100 μM 3-isobutyl-1-methylxanthine, 0.2 nM 3,3′,5-triiodo-L-thyronine, 10 μg/ml (127 nM) transferrin, and 1% penicillin-streptomycin.” left out
Total RNA was prepared from cells using PureLink RNA Isolation Kit (Invitrogen #12183-016) First strand cDNA were synthesized using the High Capacity cDNA Reverse Transcription kit (Applied Biosystems, Foster City, Calif.) and random primers.
Quantitative real-time PCR was performed using an Applied Biosystems StepOnePlus™ instrument, TaqMan Gene Expression Master Mix (Applied Biosystems #4369016), and custom TaqMan gene expression probes and primers for human uncoupling protein-1 “UCP1” (GenBank NM_021833) and for human peptidylprolyl isomerase A “cyclophilin A” (GenBank NM_021130).
Cyclophilin A was used as a control to account for any variations due to the efficiency of reverse transcription. Arbitrary units were determined by normalizing target mRNA levels to cyclophilin A mRNA levels (based on Cts).

Row | Molecule | UCP1 protein signal (IHC), differentiation of brown adipocyte progenitors into brown adipocytes [1] | brown adipocyte differentiation (light microscopy) (CD31-cells) | differentiation of BAT progenitor cells into brown adipocytes and/or expression of UCP1, PPARγ2 mRNA [2]
1 | O=C(O)c1cc(-c2ccc(F)cc2F)ccc1O [Diflunisal] | identified using this technique | promote brown adipocyte formation | –
2 | CCCN(CCC)S(=O)(=O)c1ccc(C(=O)O)cc1 [Probenecid] | identified using this technique | promote brown adipocyte formation | –
3 | O=C(CCCN1CCC2(CC1)C(=O)NCN2c1ccccc1)c1ccc(F)cc1 [Spiperone] | identified using this technique | – | –
4 | CCOC(=O)Oc1c(OC)cc(C(=O)O[C@@H]2C[C@@H]3CN4CCc5c([nH]c6cc(OC)ccc56)[C@H]4C[C@@H]3[C@H](C(=O)OC)[C@H]2OC)cc1OC [Syrosingopine] | identified using this technique | promote brown adipocyte formation | –
5 | CCSc1ccc2c(c1)N(CCCN1CCN(C)CC1)c1ccccc1S2 [Thiethylperazine] | identified using this technique | – | –
6 | CCN(CC)CCNC(=O)c1cc(S(C)(=O)=O)ccc1OC [Tiapride hydrochloride] | identified using this technique | promote brown adipocyte formation | –
7 | O=c1c(O)c(-c2ccc(O)cc2)oc2cc(O)cc(O)c12 [kaempferol] | – | promote brown adipocyte formation | promote the differentiation of BAT progenitor cells into brown adipocytes and/or induce the expression of UCP1
8 | B1 | – | promote brown adipocyte formation | promote the differentiation of BAT progenitor cells into brown adipocytes and/or induce the expression of UCP1
